Source: PubChem BioAssay (NCI)
Values joined by “and” are separate entries in the source; they are usually repeats but may differ in a detail not shown here. Equal entries are not always repeated.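 Five concentrations, 48 hours, 96-well plates. GI50: concentration for 50% inhibition of growth. The concentration for full growth arrest is given as TGI.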

Assays:
Test in all cases: NCI tumour cell line growth inhibition, 48 h
KM12 colon = tested on: KM12 colon
CCRF-CEM leukemia = tested on: CCRF-CEM leukemia
UO-31 renal = tested on: UO-31 renal
EKVX NSCLC = tested on: EKVX NSCLC
HT29 colon = tested on: HT29 colon
HCC-2998 colon = tested on: HCC-2998 colon
OVCAR-4 ovarian = tested on: OVCAR-4 ovarian
CAKI-1 renal = tested on: CAKI-1 renal
SR leukemia = tested on: SR leukemia
ACHN renal = tested on: ACHN renal
T-47D breast = tested on: T-47D breast
DU-145 prostate = tested on: DU-145 prostate

Compound	TGI (KM12 colon)	TGI (CCRF-CEM leukemia)	TGI (UO-31 renal)	TGI (EKVX NSCLC)	TGI (HT29 colon)	TGI (HCC-2998 colon)	TGI (OVCAR-4 ovarian)	TGI (CAKI-1 renal)	TGI (SR leukemia)	TGI (ACHN renal)	TGI (T-47D breast)	TGI (DU-145 prostate)	GI50 (KM12 colon)	GI50 (CCRF-CEM leukemia)	GI50 (UO-31 renal)	GI50 (HT29 colon)	GI50 (HCC-2998 colon)	GI50 (OVCAR-4 ovarian)	GI50 (CAKI-1 renal)
CC(C)=CC1C(C(=O)O)C1(C)C (stereo unspecified)	> 750 µM	> 750 µM	> 750 µM	> 750 µM	> 750 µM	> 750 µM	> 750 µM	> 750 µM											
Cc1cc2cccc(Cl)c2nc1C(=O)c1ccccc1	> 100 µM		> 100 µM			> 100 µM	> 100 µM	> 100 µM	> 100 µM	> 100 µM									
CC1CC(C#N)=C2NCCCCN2C1=O (stereo unspecified)	> 100 µM	> 100 µM	> 100 µM	> 100 µM	> 100 µM	> 100 µM	> 100 µM	> 100 µM	> 100 µM		> 100 µM	> 100 µM							
COc1cc([C@@H]2c3cc4c(cc3C[C@H]3COC(=O)[C@@H]32)OCO4)cc(OC)c1OC	> 50 µM	21.1 µM	13.2 µM	> 50 µM		1.01 µM	> 50 µM	1.72 µM				0.00914 µM	0.00389 µM and 0.005 µM	0.00386 µM	0.00501 µM	0.00294 µM and 0.00647 µM	0.00446 µM	21.8 µM	0.00463 µM
O=C1NC(=S)NC(=O)C1C(c1ccccc1[N+](=O)[O-])C1C(=O)NC(=S)NC1=O	> 100 µM	> 100 µM	> 100 µM		> 100 µM		> 100 µM	> 100 µM		> 100 µM	> 100 µM	> 100 µM							
Cc1cc(O)cc(O)c1N=Nc1ccc([N+](=O)[O-])cc1	63.1 µM	> 100 µM	83.8 µM	90.8 µM	> 100 µM	49 µM	57 µM	38.9 µM		94.9 µM	> 100 µM	79.1 µM							
Cc1oc2nc(N(C)C)n3nnnc3c2c1C	> 100 µM	> 100 µM	> 100 µM	> 100 µM	> 100 µM	> 100 µM	> 100 µM	> 100 µM		> 100 µM	> 100 µM	> 100 µM							
O=c1c2cc(I)ccc2[nH]c(=S)n1Cc1ccccc1	> 100 µM	23.1 µM	1.83 µM	35.4 µM	> 100 µM	> 100 µM	> 100 µM		> 100 µM	> 100 µM	> 100 µM	> 100 µM							
N#CSCc1cccc(Nc2cc(=O)[nH]c(=O)[nH]2)c1	> 100 µM		> 100 µM	> 100 µM	> 100 µM	> 100 µM	> 100 µM	> 100 µM		> 100 µM	> 100 µM								
Brc1ccc2c3c1[C@@H]1O[C@@H]1c1cccc(c1-3)[C@@H]1O[C@H]21	36 µM	> 100 µM	43.8 µM	39.4 µM	53.3 µM		41.3 µM	26.4 µM	> 100 µM	67.1 µM	45 µM	> 72.5 µM							
CCOC(=O)c1cnc2[nH]ccn2c1=O	> 10 µM	> 10 µM	> 10 µM	> 10 µM	> 10 µM		> 10 µM	> 10 µM	> 10 µM	> 10 µM	> 10 µM	> 10 µM							
COC(=O)C1CC(C=[N+](C)C)=C(SC)N1 (stereo unspecified)	> 100 µM		> 100 µM	> 100 µM	> 100 µM	> 100 µM	> 100 µM	> 100 µM	> 100 µM	> 100 µM	> 100 µM	> 100 µM							
NCCCC(N)C(=O)O (stereo unspecified)	> 100 µM	> 100 µM	> 100 µM	> 100 µM	> 100 µM		> 100 µM	> 100 µM	> 100 µM	> 100 µM	> 100 µM	> 100 µM							
O=C1C(C=NCCc2c[nH]c3ccccc23)C(C(F)(F)F)=NN1c1nc2ccccc2s1 (stereo unspecified)		57.8 µM	> 100 µM	62.9 µM	88 µM		63 µM	> 100 µM	93.9 µM	83.5 µM	25.5 µM	79.5 µM							
COc1cc2c(cc1OC)C(=O)/C(=C/c1cc(C)c(O)c(C)c1)C2		> 100 µM	> 100 µM	> 100 µM		> 100 µM	> 100 µM	> 100 µM	> 100 µM	> 100 µM	> 100 µM	> 100 µM							
CCOC(=O)C(=O)N1C(C)=C(C(=O)OCC)CC(C(=O)OCC)=C1C	> 100 µM	> 100 µM	> 100 µM	> 100 µM		> 100 µM	> 100 µM	> 100 µM	> 100 µM	> 100 µM	> 100 µM	> 100 µM							
CC(C)(CO)N1C(=O)c2ccccc2C1(O)c1ccc(Cl)cc1 (stereo unspecified)	> 100 µM	> 100 µM	> 100 µM	> 100 µM	> 100 µM	> 100 µM	> 100 µM	> 100 µM		> 100 µM	> 100 µM	> 100 µM							
CN1CCN(C(=S)N(C)C(=O)c2ccc(Cl)cc2)CC1	> 100 µM	> 100 µM	> 100 µM		> 100 µM	> 100 µM	> 100 µM			> 100 µM	> 100 µM	> 100 µM							
CC(C)/C(Cl)=N\OC(=O)NNc1ccccc1	> 100 µM	> 46.7 µM		37.3 µM	> 100 µM	> 100 µM	> 100 µM	28.2 µM		34.1 µM	40.1 µM	> 100 µM							
COC1C=CC23c4cc5c(cc4C(O)OC2CN(C)C3C1)OCO5 (stereo unspecified)	13.4 µM	7.21 µM	9.3 µM	32.9 µM		5.71 µM	9.77 µM	24.8 µM	4.59 µM	10.1 µM									
